Data as given in patent publication US20230233425A1, “USE OF VOLATILE COMPOSITIONS TO LIMIT OR ELIMINATE THE PERCEPTION OF MALODOR” (Firmenich SA, priority 2017, published 2023).
Like-named read-outs stand apart in the source and are kept apart here. Marks after values point to notes of the source that are not given here.

How the values were obtained:
[1] = system: 1-octen-3-ol mushroom/earthy/fungal odor perception; test: Human sensory performance of test compounds with and without 1-octen-3-ol; assay type: in vivo; details: for % Mushroom/Earthy/Fungal Odor: Test Compound Only
[2] = system: OR2W1 or the OR1A1 olfactory receptor; test: 1-octen-3-ol olfactory receptor antagonist cell-based dose-response vs 1-octen-3-ol EC80; details: for IC50: 1-octen-3-ol at EC80; for % Inhibition: maximum inhibition normalized to baseline agonist activity
From the text: Each cell line was screened with a volatile compound library for their inhibitory properties and potential 1-octen-3-ol smell inhibition.
Single concentration monitoring of the 1-octen-3-ol induced cell activity in the presence or absence of a test compound allowed for the identification of compounds with a putative suppression or inhibitory effect.

[3] = target: T1, OR51E1 olfactory receptor (Homo sapiens, UniProt Q8TCB6); test: Butyric acid olfactory receptor antagonist cell-based dose-response vs butyric acid EC80; details: butyric acid at EC80; Table 5
T1 construct: expressed in transfected cells
T1 sequence (Q8TCB6 1-318): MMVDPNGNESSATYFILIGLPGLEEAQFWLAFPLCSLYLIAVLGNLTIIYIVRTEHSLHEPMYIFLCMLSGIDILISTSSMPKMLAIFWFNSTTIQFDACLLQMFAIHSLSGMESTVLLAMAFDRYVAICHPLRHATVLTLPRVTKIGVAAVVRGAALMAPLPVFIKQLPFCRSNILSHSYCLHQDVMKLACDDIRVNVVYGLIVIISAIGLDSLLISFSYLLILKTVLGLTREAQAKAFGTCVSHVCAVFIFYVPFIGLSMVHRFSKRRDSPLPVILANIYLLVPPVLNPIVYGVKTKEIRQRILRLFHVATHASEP

[4] = system: OR11A1, or the OR2M3 olfactory receptor; test: Geonol olfactory receptor antagonist cell-based screening, inhibitory dose-response vs geonol EC80; set-up: species or system human; details: geonol at EC80
[5] = system: geonol earthy/moss odor perception; test: Human sensory performance of test compounds with and without geonol; assay type: in vivo; details: for % Earthy/Moss Odor: Test Compound Only
From the text: Sensory Evaluation: Five 16 oz glass jars containing either REF (geonol only), geonol only control, antagonist only, mixture of geonol and isointense antagonist, or mixture of geonol and low intensity antagonist were presented to the panelists (last four samples were randomized across panelists). The panelists were asked to familiarize themselves with the earthy/moss odor quality from the REF jar first, then rate the pleasantness, earthy/moss odor intensity and overall odor intensity of the next four samples on a 0-10 linear scale. The inter-stimulus interval between the samples was two minutes to avoid adaptation. […]
The results are shown in Tables 16 and 17, and FIGS. 3 to 5.

[6] = system: geonol malodor (earthy/moss odor) perception; test: Sensory evaluation of geonol earthy/moss odor in iso-intense binary mixtures (glass jars); assay type: in vivo, human; details: iso-intense binary mixture
From the text: Sensory Evaluation: Five 16 oz glass jars containing either REF (geonol only), geonol only control, antagonist only, mixture of geonol and isointense antagonist, or mixture of geonol and low intensity antagonist were presented to the panelists (last four samples were randomized across panelists). The panelists were asked to familiarize themselves with the earthy/moss odor quality from the REF jar first, then rate the pleasantness, earthy/moss odor intensity and overall odor intensity of the next four samples on a 0-10 linear scale. The inter-stimulus interval between the samples was two minutes to avoid adaptation.

[7] = system: geonol receptors Olfr339, Olfr1487, Olfr1A1, OR11A1, Olfr96; test: Antagonists of geonol receptors (Example 11); assay type: cell-based, mouse and human; set-up: Inhibition(%): concentration or dose not given beside the values; details: Table 18
Olfr740 = Olfr740 (Mus musculus, UniProt E9PV79); test: Indole antagonist dose-response, cAMP HTRF in HEK293T, vs indole EC80; assay type: cell-based; details: for Emax: HEK-293T, read-out: Olfr740 % Inhibition
Protocol: (§1) Using a cell-based assay, mouse receptor Olfr738, Olfr739, Olfr740, Olfr741, 0fr742, Olfr743, Olfr744, Olfr746, Olfr748 and Olfr749 were tested in an HEK293T cell line wherein the endogenous RTP1 gene has been activated and the odorant receptor chaperone was expressed (described in WO2016201153A1). The receptor genes were tagged with a Flag-Rho tag combination. Receptor genes were co-transfected with the canonical olfactory human G-protein alpha subunit Golf gene. Co-expression of the human Golf activates the Gs transduction pathway that leads to an internal cAMP increase upon binding to the appropriate ligand (indole here). Odorant-induced activity was detected by measuring the cAMP increase in the cytosol using an HTRF based kit (CisBio, cAMP dynamic 2 kit, cat. 62AM4PEJ).

Olfr738 = Olfr738 (Mus musculus, UniProt L7N1X7); test: as above; assay type: cell-based; details: for Olfr738 % Inhibition: Table 22, first listing
Protocol: as §1

Olfr741 = Olfr741 (Mus musculus, UniProt L7N1Y5); test: as above; assay type: cell-based; details: Table 22, first listing
Protocol: as §1

Olfr742 = Olfr742 (Mus musculus, UniProt A2RTP5); test: as above; assay type: cell-based; details: for Emax: HEK-293T, read-out: Olfr742 % Inhibition
Protocol: as §1

[8] = system: 1-octen-3-ol receptors OR2W1, Olfr93, Olfr120, Olfr398; test: Antagonists of 1-octen-3-ol receptors (Example 11); assay type: cell-based, mouse and human; set-up: Inhibition(%): concentration or dose not given beside the values; details: Table 19
[9] = Low Dilution Test Compound + 1-octen-3-ol (0.15%)
[10] = Medium Dilution Test Compound + 1-octen-3-ol (0.15%)
[11] = Low Dilution Test Compound + Geonol (0.1%)
[12] = Medium Dilution Test Compound + Geonol (0.1%)
[13] = Table 22, first listing, vs indole EC80
[14] = Table 22, first listing (r7-r45), vs indole EC80, read-out: Olfr740 IC50
[15] = Table 22, first listing (r7-r45), vs indole EC80, read-out: Olfr742 IC50

Chain of Olfr740 (E9PV79 entry or part of it): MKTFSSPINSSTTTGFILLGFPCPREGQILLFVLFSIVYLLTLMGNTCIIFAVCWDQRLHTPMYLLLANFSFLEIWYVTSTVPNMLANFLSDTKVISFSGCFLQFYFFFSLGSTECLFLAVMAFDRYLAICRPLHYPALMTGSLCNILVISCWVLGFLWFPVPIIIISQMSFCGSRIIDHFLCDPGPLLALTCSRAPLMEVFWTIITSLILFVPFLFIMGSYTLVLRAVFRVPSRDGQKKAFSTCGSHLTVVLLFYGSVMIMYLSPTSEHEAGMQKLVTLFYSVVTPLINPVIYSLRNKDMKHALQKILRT
Chain of Olfr738 (L7N1X7 entry or part of it): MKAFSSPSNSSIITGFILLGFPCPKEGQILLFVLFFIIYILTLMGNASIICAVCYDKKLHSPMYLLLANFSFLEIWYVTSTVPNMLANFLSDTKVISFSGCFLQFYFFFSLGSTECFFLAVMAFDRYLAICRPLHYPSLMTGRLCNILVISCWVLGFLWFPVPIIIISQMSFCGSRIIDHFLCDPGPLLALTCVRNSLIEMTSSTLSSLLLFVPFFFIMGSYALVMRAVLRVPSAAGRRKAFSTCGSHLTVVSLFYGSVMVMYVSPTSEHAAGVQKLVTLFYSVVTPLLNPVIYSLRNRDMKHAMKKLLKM
Chain of Olfr742 (A2RTP5 entry or part of it): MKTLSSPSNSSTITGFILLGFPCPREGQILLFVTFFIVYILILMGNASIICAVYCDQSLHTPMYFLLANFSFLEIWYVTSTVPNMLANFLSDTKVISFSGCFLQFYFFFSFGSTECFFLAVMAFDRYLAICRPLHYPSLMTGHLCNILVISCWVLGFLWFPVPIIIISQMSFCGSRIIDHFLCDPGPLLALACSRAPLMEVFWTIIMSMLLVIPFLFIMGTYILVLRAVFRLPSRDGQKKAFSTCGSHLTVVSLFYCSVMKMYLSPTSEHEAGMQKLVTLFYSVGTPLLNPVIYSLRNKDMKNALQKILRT
Chain of Olfr741 (L7N1Y5 entry or part of it): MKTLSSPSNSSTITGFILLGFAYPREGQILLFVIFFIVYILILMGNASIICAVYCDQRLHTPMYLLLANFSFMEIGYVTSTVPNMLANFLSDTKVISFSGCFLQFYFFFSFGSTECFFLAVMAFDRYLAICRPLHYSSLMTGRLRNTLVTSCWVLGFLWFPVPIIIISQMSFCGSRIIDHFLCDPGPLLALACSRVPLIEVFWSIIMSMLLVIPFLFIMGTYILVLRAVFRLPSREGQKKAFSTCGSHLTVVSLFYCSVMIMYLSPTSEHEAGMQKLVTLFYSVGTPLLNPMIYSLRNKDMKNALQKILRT

Molecule: 1-(4,8-dimethyl-12-methylidenecyclododeca-4,8-dien-1-yl)ethanone; 1-(2,6,10-trimethylcyclododeca-1,5,9-trien-1-yl)ethanone; 1-(2,6,10-trimethylcyclododeca-2,5,9-trien-1-yl)ethanone
- % Mushroom/Earthy/Fungal Odor Remaining [1, 9]: 88.90%
- % Mushroom/Earthy/Fungal Odor Remaining [1, 10]: 68.50%
- % Mushroom/Earthy/Fungal Odor [1]: 26.70%
- IC50 [2]: 82.4 µM
- % Inhibition [2]: 113.23%
- IC50 [3]: 101 µM
- % Inhibition [4]: 20%
- IC50 ([4]; read-out: IC50): 301 µM

Molecule: 3-methyl-4-(2,6,6-trimethylcyclohex-2-en-1-yl)but-3-en-2-one; 1-(2,6,6-trimethylcyclohex-2-en-1-yl)pent-1-en-3-one
- % Mushroom/Earthy/Fungal Odor Remaining [1, 9]: 75.80%
- % Mushroom/Earthy/Fungal Odor Remaining [1, 10]: 53.50%
- % Mushroom/Earthy/Fungal Odor [1]: 20.00%
- % Earthy/Moss Odor Remaining [5, 11]: 75.80%
- % Earthy/Moss Odor Remaining [5, 12]: 56.20%
- % Earthy/Moss Odor [5]: 29.40%
- % Remaining in human sensory tests [6]: 38* %

Molecule: CC1CCCCCCCCCCCCC(=O)C1 (racemic) [(+−)-3-methylcyclopentadecanone]
- % Mushroom/Earthy/Fungal Odor [1]: 11.60%
- IC50 [2]: 44 µM
- % Inhibition [2]: 113.50%
- IC50 [3]: 159 µM

Molecule: CC1C(C)(C)C2=C(C(=O)CCC2)C1(C)C (centres unmarked) [1,1,2,3,3-pentamethyl-2,5,6,7-tetrahydroinden-4-one]
- IC50 [7]: 268 µM
- Inhibition(%) [7]: 71%
- % Mushroom/Earthy/Fungal Odor [1]: 25.90%
- IC50 [2]: 51.2 µM
- % Inhibition [2]: 118.44%
- Emax (Olfr740; [13]): 217%
- IC50 (Olfr740; [14]): 12 µM
- IC50 (Olfr738; Table 22, first listing (r7-r45), vs indole EC80, read-out: Olfr738 IC50): 21.3 µM
- Olfr738 % Inhibition (Olfr738; vs indole EC80): 61.33%
- IC50 (Olfr741): 2560 µM
- Olfr741 % Inhibition (Olfr741): 140.61%
- Emax (Olfr742; [13]): 120%
- IC50 (Olfr742; [15]): 249 µM

Molecule: O=C1CCCCCCCCCCC(=O)OCCO1 [1,4-dioxacyclohexadecane-5,16-dione]
- IC50 [7]: 136 µM
- Inhibition(%) [7]: 33%
- % Mushroom/Earthy/Fungal Odor [1]: 14.90%
- IC50 [2]: 24.2 µM
- % Inhibition [2]: 116.54%

Molecule: CC1C(=O)c2ccccc2C1(C)C (centres unmarked) [2,3,3-trimethyl-2~{H}-inden-1-one]
- % Mushroom/Earthy/Fungal Odor Remaining [1, 9]: 94.40%
- % Mushroom/Earthy/Fungal Odor Remaining [1, 10]: 57.90%
- % Mushroom/Earthy/Fungal Odor [1]: 16.50%

Molecule: CC1CC(C)(c2ccccc2)CO1 (centres unmarked) [2,4-dimethyl-4-phenyloxolane]
- Emax (Olfr740; [13]): 100%
- IC50 (Olfr740; [14]): 51.2 µM

Molecule: CC1=CC(C)C(C=O)CC1 (centres unmarked) [2,4-dimethylcyclohex-3-enecarbaldehyde]
- IC50 [2]: 18.8 µM
- % Inhibition [2]: 107.99%
- % Remaining in human sensory tests [6]: 45* %

Molecule: Cc1ccc(CC(C)C=O)cc1 (centres unmarked) [2-methyl-3-(4-methylphenyl) propanal]
- Emax (Olfr742; [13]): 37.2%
- IC50 (Olfr742; [15]): 88.2 µM

Molecule: CC(=CC=O)CCC(C)=C(C)C [3,6,7-trimethylocta-2,6-dienal]
- % Mushroom/Earthy/Fungal Odor [1]: 16.40%
- % Earthy/Moss Odor [5]: 26.90%

Molecule: CC(C)=CCCC(C)=CC=O [3,7-dimethylocta-2,6-dienal]
- % Mushroom/Earthy/Fungal Odor [1]: 22.30%
- % Earthy/Moss Odor [5]: 27.60%
- % Remaining in human sensory tests [6]: 42* %

Molecule: CC(C)(C)c1ccc(CCC=O)cc1 [3-(4-tert-butylphenyl)propanal]
- % Inhibition [4]: 50%
- IC50 ([4]; read-out: IC50): 316 µM

Molecule: CC(CC=O)CCc1ccccc1 (centres unmarked) [3-methyl-5-phenylpentanal]
- Emax (Olfr740; [13]): 110%
- IC50 (Olfr740; [14]): 16.1 µM

Molecule: CC(CC=O)c1ccccc1 (centres unmarked) [3-phenylbutanal]
- Emax (Olfr742; [13]): 113%
- IC50 (Olfr742; [15]): 44.8 µM

Molecule: CC(=O)C=CC1=C(C)CCCC1(C)C [4-(2,6,6-trimethylcyclohexen-1-yl)but-3-en-2-one]
- IC50 [7]: 289 µM
- Inhibition(%) [7]: 51%
- IC50 [8]: 269 µM
- Inhibition(%) [8]: 66%
- % Earthy/Moss Odor [5]: 41.80%
- % Remaining in human sensory tests [6]: 43* %

Molecule: CC(C)=CCCC(C)=CCCc1ccncc1 [4-(4,8-dimethylnona-3,7-dienyl)pyridine]
- % Mushroom/Earthy/Fungal Odor [1]: 44.40%
- IC50 [2]: 134 µM
- % Inhibition [2]: 111.87%

Molecule: CC(CC=O)CCCC(C)(C)O (centres unmarked) [7-hydroxy-3,7-dimethyloctanal]
- % Remaining in human sensory tests [6]: 39* %

Molecule: C[C@@H](CC=O)CCCC(C)(C)O [(3~{R})-7-hydroxy-3,7-dimethyloctanal]
- % Mushroom/Earthy/Fungal Odor Remaining [1, 9]: 70.00%
- % Mushroom/Earthy/Fungal Odor Remaining [1, 10]: 56.50%
- % Mushroom/Earthy/Fungal Odor [1]: 20.70%
- % Earthy/Moss Odor Remaining [5, 11]: 68.20%
- % Earthy/Moss Odor Remaining [5, 12]: 57.20%
- % Earthy/Moss Odor [5]: 30.30%

Molecule: CC(=O)OC(C)CC(C)(C)c1ccccc1 (centres unmarked) [(4-methyl-4-phenylpentan-2-yl) acetate]
- IC50 [7]: 627 µM
- Inhibition(%) [7]: 84%
- % Mushroom/Earthy/Fungal Odor [1]: 52.70%
- IC50 [2]: 61.7 µM
- % Inhibition [2]: 98.90%
- IC50 [3]: 59.2 µM
- IC50 [8]: 62 µM
- Inhibition(%) [8]: 119%

Molecule: C=C(C)[C@@H]1CCC2=CC(=O)C[C@@H](C)[C@]2(C)C1 [(4R,4aS,6R)-4,4a-dimethyl-6-prop-1-en-2-yl-3,4,5,6,7,8-hexahydronaphthalen-2-one]
- % Inhibition [4]: 50%
- IC50 ([4]; read-out: IC50): 486 µM
- IC50 [8]: 36.5 µM
- Inhibition(%) [8]: 39%
- % Earthy/Moss Odor [5]: 70.60%

Molecule: CC(C)=CCC[C@@H](C)CC#N [(−)-(R)-3,7-dimethyl-6-octenenitrile]
- % Inhibition [4]: 10%
- IC50 ([4]; read-out: IC50): 300 µM

Molecule: CCCCCOC(=O)Cc1ccccc1 [Amyl Phenylacetate]
- IC50 (Olfr740): 40.4 µM
- Emax (Olfr740): 61%
- IC50 (Olfr738): 82.7 µM
- Olfr738 % Inhibition (Olfr738; vs indole EC80): 18.44%
- IC50 (Olfr742): 141 µM
- Emax (Olfr742): 18%

Molecule: Cc1ccc(C(C)C)cc1O [Compound 2-methyl-5-propan-2-ylphenol, 2-methyl-5-propan-2-ylphenol]
- IC50 [4]: 215 µM
- % Earthy/Moss Odor [5]: 40.10%

Molecule: CCCCCC1CCCC1=O (centres unmarked) [Compound 2-pentylcyclopentan-1-one, 2-pentylcyclopentan-1-one]
- % Earthy/Moss Odor [5]: 40.90%
- % Remaining in human sensory tests [6]: 78%

Molecule: CCC=CCC=CC=CC(=O)OCC [ethyl deca-2,4,7-trienoate]
- % Mushroom/Earthy/Fungal Odor [1]: 56.50%
- % Earthy/Moss Odor [5]: 62.20%

Molecule: CC(C)Cc1ccc2ccccc2n1 [isobutylquinoline, 2-ISOBUTYLQUINOLINE]
- % Mushroom/Earthy/Fungal Odor [1]: 27.30%
- IC50 [2]: > 600 µM
- % Inhibition [2]: 30.14%
- % Inhibition [4]: 45%
- % Earthy/Moss Odor [5]: 37.80%

Molecule: CCCCCC/C=C/C=O [nonylenic aldehyde]
- % Inhibition [4]: 30%
- IC50 ([4]; read-out: IC50): 151 µM

Molecule: O=C1CCCCCCCCCCCCCCO1 [oxacyclohexadecan-2-one]
- IC50 [7]: 291 µM
- Inhibition(%) [7]: 34%
- % Mushroom/Earthy/Fungal Odor [1]: 13.90%
- % Earthy/Moss Odor [5]: 18.70%

Molecule: CC(=O)OCCc1ccccc1 [phenyl ethyl acetate]
- % Earthy/Moss Odor Remaining [5, 11]: 97.10%
- % Earthy/Moss Odor Remaining [5, 12]: 65.80%
- % Earthy/Moss Odor [5]: 35.30%
- % Remaining in human sensory tests [6]: 47* %
